Assay results taken from ChEMBL document CHEMBL1681708, “The synthesis and structure-activity relationship of pyridazinones as glucan synthase inhibitors” (Bioorg Med Chem Lett, 2011).
Values after ≈ are worked out from the molar mass of the structure shown.

How the values were obtained:
[1] = target: T1, Beta-1,3-glucan synthase (Candida albicans, UniProt O13383); test: Inhibition of Candida albicans BWP17 1,3-beta-D-glucan synthase
T1 sequence (O13383 whole entry): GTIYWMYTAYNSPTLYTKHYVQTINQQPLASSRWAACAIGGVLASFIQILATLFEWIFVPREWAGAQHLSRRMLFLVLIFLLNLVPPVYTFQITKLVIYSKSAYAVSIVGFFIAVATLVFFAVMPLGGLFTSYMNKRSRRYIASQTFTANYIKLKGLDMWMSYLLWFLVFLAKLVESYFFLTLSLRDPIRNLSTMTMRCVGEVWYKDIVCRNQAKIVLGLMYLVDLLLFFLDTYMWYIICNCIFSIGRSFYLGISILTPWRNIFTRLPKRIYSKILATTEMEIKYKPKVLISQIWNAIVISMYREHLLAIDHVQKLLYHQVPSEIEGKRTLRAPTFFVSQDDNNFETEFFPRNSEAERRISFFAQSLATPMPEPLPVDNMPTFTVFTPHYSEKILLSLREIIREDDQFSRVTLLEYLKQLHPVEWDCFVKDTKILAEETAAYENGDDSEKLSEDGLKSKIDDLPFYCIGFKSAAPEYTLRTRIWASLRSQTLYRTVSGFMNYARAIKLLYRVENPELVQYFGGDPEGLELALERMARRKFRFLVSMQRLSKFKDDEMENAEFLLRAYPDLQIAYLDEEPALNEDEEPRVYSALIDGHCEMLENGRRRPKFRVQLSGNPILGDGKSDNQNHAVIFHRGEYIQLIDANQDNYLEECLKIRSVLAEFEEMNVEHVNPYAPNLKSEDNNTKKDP

[2] = system: Nakaseomyces glabratus; test: Antifungal activity against Candida glabrata C624 by broth dilution method; format: functional; conditions: read-out: MIC100
[3] = system: Candida albicans; test: Antifungal activity against Candida albicans C693 by broth dilution method; format: functional; conditions: for MIC: read-out: MIC100
[4] = AUC (0 to 6 hrs) in rat at 10 mg/kg, po administered with methylcellulose; format: ADME, organism-based; set-up: time < 6 hr, dose 10 mg/kg, route oral; conditions: in vivo
[5] = system: Aspergillus fumigatus; test: Antifungal activity against Aspergillus fumigatus ND158 by broth dilution method; format: functional; conditions: read-out: MEC
[6] = target: Cytochrome P450 2D6 (Homo sapiens, UniProt P10635); test: Inhibition of CYP2D6 at 30 uM; format: ADME
Sequence of Cytochrome P450 2D6 (P10635 whole entry): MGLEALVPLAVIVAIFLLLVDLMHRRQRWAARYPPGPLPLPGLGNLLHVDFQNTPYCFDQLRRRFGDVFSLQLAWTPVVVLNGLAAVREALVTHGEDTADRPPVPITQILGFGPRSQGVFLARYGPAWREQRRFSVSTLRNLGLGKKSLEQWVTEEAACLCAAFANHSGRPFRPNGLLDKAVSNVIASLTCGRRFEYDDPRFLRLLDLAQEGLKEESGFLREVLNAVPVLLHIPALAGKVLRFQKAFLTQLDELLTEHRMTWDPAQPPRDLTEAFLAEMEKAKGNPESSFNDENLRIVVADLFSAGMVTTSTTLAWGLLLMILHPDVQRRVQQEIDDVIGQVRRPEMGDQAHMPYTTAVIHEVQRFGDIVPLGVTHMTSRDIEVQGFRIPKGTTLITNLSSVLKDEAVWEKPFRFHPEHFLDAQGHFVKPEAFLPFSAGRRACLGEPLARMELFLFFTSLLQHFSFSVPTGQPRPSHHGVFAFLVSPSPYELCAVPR

[7] = target: Cytochrome P450 3A4 (Homo sapiens, UniProt P08684); test: Inhibition of CYP3A4 at 30 uM; format: ADME
Sequence of Cytochrome P450 3A4 (P08684 whole entry): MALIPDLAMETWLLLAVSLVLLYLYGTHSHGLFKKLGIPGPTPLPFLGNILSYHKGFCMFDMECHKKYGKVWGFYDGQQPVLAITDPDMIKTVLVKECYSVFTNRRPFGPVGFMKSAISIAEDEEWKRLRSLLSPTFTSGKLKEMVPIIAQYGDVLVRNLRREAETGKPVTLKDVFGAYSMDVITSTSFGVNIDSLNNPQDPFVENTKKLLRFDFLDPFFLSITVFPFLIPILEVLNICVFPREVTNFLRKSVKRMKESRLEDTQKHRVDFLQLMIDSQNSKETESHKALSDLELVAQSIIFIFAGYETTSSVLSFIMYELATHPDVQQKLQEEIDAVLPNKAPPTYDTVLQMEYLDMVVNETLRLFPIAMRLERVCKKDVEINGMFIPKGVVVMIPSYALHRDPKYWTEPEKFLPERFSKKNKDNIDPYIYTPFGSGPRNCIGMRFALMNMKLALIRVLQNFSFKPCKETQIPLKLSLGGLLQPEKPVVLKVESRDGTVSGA

[8] = target: Cytochrome P450 2C9 (Homo sapiens, UniProt P11712); test: Inhibition of CYP2C9 at 30 uM; format: ADME
Sequence of Cytochrome P450 2C9 (P11712 whole entry): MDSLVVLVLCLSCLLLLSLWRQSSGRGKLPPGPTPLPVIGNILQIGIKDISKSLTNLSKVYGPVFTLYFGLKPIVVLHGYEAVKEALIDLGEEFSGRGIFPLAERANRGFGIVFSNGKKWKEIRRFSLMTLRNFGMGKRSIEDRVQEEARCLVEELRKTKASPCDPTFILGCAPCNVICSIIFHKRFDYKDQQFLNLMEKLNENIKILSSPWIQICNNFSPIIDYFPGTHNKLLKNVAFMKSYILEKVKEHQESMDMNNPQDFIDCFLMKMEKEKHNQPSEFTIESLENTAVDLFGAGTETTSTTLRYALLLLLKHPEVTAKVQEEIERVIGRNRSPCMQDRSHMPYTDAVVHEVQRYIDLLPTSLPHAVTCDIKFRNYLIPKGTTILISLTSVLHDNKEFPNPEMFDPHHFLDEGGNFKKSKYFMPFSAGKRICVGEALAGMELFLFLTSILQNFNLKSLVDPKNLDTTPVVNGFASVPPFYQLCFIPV

[9] = target: hERG (KCNH2) (Homo sapiens, UniProt Q12809); test: Inhibition of human ERG at 1 uM by patch clamp assay
Sequence of hERG (KCNH2) (Q12809 whole entry): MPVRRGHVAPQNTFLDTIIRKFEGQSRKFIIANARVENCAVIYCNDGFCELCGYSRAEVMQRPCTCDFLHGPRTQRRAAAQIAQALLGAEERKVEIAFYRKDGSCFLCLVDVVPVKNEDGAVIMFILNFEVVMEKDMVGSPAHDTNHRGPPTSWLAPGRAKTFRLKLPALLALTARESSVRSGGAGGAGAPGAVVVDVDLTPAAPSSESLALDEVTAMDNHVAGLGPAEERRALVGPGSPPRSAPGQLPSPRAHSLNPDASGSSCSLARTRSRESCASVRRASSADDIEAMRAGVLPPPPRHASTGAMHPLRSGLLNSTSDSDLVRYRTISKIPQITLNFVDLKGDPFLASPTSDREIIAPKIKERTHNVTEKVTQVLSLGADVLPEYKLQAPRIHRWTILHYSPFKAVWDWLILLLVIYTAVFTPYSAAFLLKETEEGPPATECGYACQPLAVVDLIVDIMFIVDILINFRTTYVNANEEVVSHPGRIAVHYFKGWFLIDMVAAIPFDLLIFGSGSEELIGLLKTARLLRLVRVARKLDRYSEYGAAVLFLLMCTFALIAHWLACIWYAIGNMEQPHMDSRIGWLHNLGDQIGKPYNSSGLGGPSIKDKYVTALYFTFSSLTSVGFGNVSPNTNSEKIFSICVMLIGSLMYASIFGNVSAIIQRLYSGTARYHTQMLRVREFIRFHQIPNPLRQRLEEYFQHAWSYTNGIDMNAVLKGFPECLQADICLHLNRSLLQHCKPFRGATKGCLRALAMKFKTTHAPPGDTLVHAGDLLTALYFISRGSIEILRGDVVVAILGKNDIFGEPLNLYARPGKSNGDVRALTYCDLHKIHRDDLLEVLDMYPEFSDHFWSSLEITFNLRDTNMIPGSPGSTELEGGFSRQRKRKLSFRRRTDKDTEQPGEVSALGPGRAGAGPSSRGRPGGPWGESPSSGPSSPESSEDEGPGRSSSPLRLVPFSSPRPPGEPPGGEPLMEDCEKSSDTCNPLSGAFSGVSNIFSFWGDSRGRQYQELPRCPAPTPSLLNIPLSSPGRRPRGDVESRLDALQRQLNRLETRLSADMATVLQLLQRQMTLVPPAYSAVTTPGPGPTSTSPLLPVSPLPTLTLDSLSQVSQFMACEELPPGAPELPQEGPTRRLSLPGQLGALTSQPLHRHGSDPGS

[10] = AUC (0 to 8 hrs) in dog at 2 mg/kg, po administered with methylcellulose and HPBCD; format: ADME, organism-based, Canis lupus familiaris; set-up: time < 8 hr, dose 2 mg/kg, route oral; conditions: in vivo
[11] = system: Hepatocyte; test: Clearance in human hepatocytes measured per molar mass of cells; format: ADME, cell-based, Liver
[12] = system: Hepatocyte; test: Clearance in rat hepatocytes measured per molar mass of cells; format: ADME, cell-based, Liver
[13] = Clearance in dog hepatocytes measured per molar mass of cells; format: ADME, cell-based, Canis lupus familiaris, Liver, Hepatocyte
[14] = system: Candida glabrata; test: Antifungal activity against Candida glabrata C624 infected in immunocompromized mouse assessed as log10 reduction in CFU in kidney at 30 mg/kg, poqd for seven days (reference value: 4.28 log10 CFU)
[15] = system: Candida glabrata; test: Antifungal activity against Candida glabrata C624 infected in immunocompromized mouse assessed as log10 reduction in CFU in kidney at 10 mg/kg, poqd for seven days (reference value: 4.28 log10 CFU)

| IC50 [1] | MIC [2] | MIC [3] | Structure (SMILES) | further results |
| --- | --- | --- | --- | --- |
| 4.12 µM | 25 µg/mL (≈ 54.2 µM) | > 50 µg/mL | CC(C)S(=O)(=O)N1CCN(c2cnn(-c3cccc(N)c3)c(=O)c2OC2CCCC2)CC1 |  |
| 4.5 µM | 0.78 µg/mL (≈ 1.52 µM) | > 50 µg/mL | CCOCCCNc1c(N2CCN(S(=O)(=O)Cc3ccccc3)CC2)cnn(-c2ccccc2)c1=O |  |
| 1.08 µM | 0.1 µg/mL (≈ 0.208 µM) | 3.1 µg/mL (≈ 6.44 µM) | CC(C)S(=O)(=O)N1CCN(c2cnn(-c3cccc(Cl)c3)c(=O)c2OC2CCCC2)CC1 | AUC(0-t) at 6 h [4]: 490 ng·h/mL |
| 1.04 µM | 0.05 µg/mL (≈ 0.0983 µM) | 0.78 µg/mL (≈ 1.53 µM) | O=c1c(OC2CCCCC2)c(N2CCN(S(=O)(=O)Cc3ccccc3)CC2)cnn1-c1ccccc1 |  |
| 4.21 µM | 0.39 µg/mL (≈ 0.746 µM) | 6.3 µg/mL (≈ 12.1 µM) | CC1CN(S(=O)(=O)Cc2ccccc2)CCN1c1cnn(-c2ccccc2)c(=O)c1OC1CCCCC1 (stereo not drawn) |  |
| 0.364 µM | 0.03 µg/mL (≈ 0.0607 µM) | 0.26 µg/mL (≈ 0.526 µM) | O=c1c(OC2CCCC2)c(N2CCN(S(=O)(=O)Cc3ccccc3)CC2)cnn1-c1ccccc1 |  |
| 1.19 µM | 0.06 µg/mL (≈ 0.121 µM) | 8.4 µg/mL (≈ 16.9 µM) | O=c1c(OC2CCCC2)c(N2CCN(S(=O)(=O)Cc3ccccn3)CC2)cnn1-c1ccccc1 |  |
| 1.16 µM | 0.05 µg/mL (≈ 0.0964 µM) | 12.5 µg/mL (≈ 24.1 µM) | CC(C)S(=O)(=O)N1CCN(c2cnn(-c3cc(F)cc(F)c3)c(=O)c2OC2CCC(F)(F)C2)CC1 (stereo not drawn) | minimal effective concentration [5]: 3.1 µg/mL; AUC(0-t) at 6 h [4]: 440 ng·h/mL |
| 3.81 µM | 0.2 µg/mL (≈ 0.448 µM) |  | CC(C)S(=O)(=O)N1CCN(c2cnn(-c3ccccc3)c(=O)c2OC2CCCC2)CC1 | MIC50 [3]: 25 µg/mL (≈ 56 µM); AUC(0-t) at 6 h [4]: 1600 ng·h/mL |
| 2.2 µM | 0.78 µg/mL (≈ 1.56 µM) | 6.3 µg/mL (≈ 12.6 µM) | CC(C)S(=O)(=O)N1CCN(c2cnn(-c3cccc(F)c3)c(=O)c2OC2CCC(F)(F)C2)CC1 (stereo not drawn) | minimal effective concentration [5]: 3.1 µg/mL; AUC(0-t) at 6 h [4]: 470 ng·h/mL |
| 9.28 µM | 0.39 µg/mL (≈ 0.787 µM) | > 50 µg/mL | O=c1c(N2CCOCC2)c(N2CCN(S(=O)(=O)Cc3ccccc3)CC2)cnn1-c1ccccc1 |  |
| > 22 µM | 8.4 µg/mL (≈ 18.5 µM) | > 20 µg/mL | CC(C)S(=O)(=O)N1CCN(c2cnn(-c3nccs3)c(=O)c2OC2CCCC2)CC1 |  |
| > 17.5 µM | 1.6 µg/mL (≈ 2.79 µM) | > 50 µg/mL | CCCCCCCS(=O)(=O)c1c(N2CCN(S(=O)(=O)Cc3ccccc3)CC2)cnn(-c2ccccc2)c1=O |  |
| 0.404 µM | 0.13 µg/mL (≈ 0.262 µM) | 8.4 µg/mL (≈ 16.9 µM) | O=c1c(OC2CCCC2)c(N2CCN(S(=O)(=O)Cc3cccnc3)CC2)cnn1-c1ccccc1 |  |
| 19.4 µM | 0.78 µg/mL (≈ 1.72 µM) | > 50 µg/mL | CC(C)S(=O)(=O)N1CCN(c2cnn(C3CCCCC3)c(=O)c2OC2CCCC2)CC1 |  |
| 5.39 µM | 0.59 µg/mL (≈ 1.06 µM) | 25 µg/mL (≈ 44.9 µM) | CCCCCCC[S+]([O-])c1c(N2CCN(S(=O)(=O)Cc3ccccc3)CC2)cnn(-c2ccccc2)c1=O (stereo not drawn) |  |
| 5.36 µM | 0.78 µg/mL (≈ 1.49 µM) |  | C[C@@H]1CN(c2cnn(-c3ccccc3)c(=O)c2OC2CCCCC2)CCN1S(=O)(=O)Cc1ccccc1 | MIC50 [3]: 19 µg/mL (≈ 36.4 µM) |
| 2.7 µM | 0.63 µg/mL (≈ 1.31 µM) | 5 µg/mL (≈ 10.4 µM) | O=c1c(OC2CCCC2)c(N2CCN(S(=O)(=O)c3ccccn3)CC2)cnn1-c1ccccc1 |  |

| IC50 [1] | MIC [2] | MIC [3] | Structure (SMILES) | further results |
| --- | --- | --- | --- | --- |
| 13.6 µM | 1.6 µg/mL (≈ 3.57 µM) | > 50 µg/mL | CC(C)S(=O)(=O)N1CCN(c2cnn(-c3cccnc3)c(=O)c2OC2CCCC2)CC1 |  |
| 0.87 µM | 0.13 µg/mL (≈ 0.269 µM) | 16.7 µg/mL (≈ 34.6 µM) | CC(C)S(=O)(=O)N1CCN(c2cnn(-c3cccc(F)c3)c(=O)c2OC2CCC(F)C2)CC1 (racemic) | minimal effective concentration [5]: 4.2 µg/mL; AUC(0-t) at 6 h [4]: 300 ng·h/mL |
| 0.229 µM | < 0.1 µg/mL | 0.78 µg/mL (≈ 1.49 µM) | CCCCCCCOc1c(N2CCN(S(=O)(=O)Cc3ccccc3)CC2)cnn(-c2ccccc2)c1=O |  |
| 4.47 µM | > 20 µg/mL | > 20 µg/mL | O=c1c(C2CCCCC2)c(N2CCN(S(=O)(=O)Cc3ccccc3)CC2)cnn1-c1ccccc1 |  |
| 1.24 µM | 0.1 µg/mL (≈ 0.2 µM) | 6.3 µg/mL (≈ 12.6 µM) | CC(C)S(=O)(=O)N1CCN(c2cnn(-c3cc(F)cc(F)c3)c(=O)c2OC2CCC(F)C2)CC1 (racemic) | minimal effective concentration [5]: 1.6 µg/mL; AUC(0-t) at 6 h [4]: 2100 ng·h/mL; inhibition (INH) [6]: Not Active; inhibition (INH) [7]: Not Active; inhibition (INH) [8]: Not Active; inhibition at 1 µM [9]: 22%; AUC(0-t) at 8 h [10]: 3500 ng·h/mL; CL [11]: 1 µL/min; CL [12]: 2.4 µL/min; CL [13]: 1.7 µL/min; log10cfu [14]: 1.3; log10cfu [15]: 4.16 |
| 0.501 µM | 0.06 µg/mL (≈ 0.12 µM) | 6.3 µg/mL (≈ 12.6 µM) | CC(C)S(=O)(=O)N1CCN(c2cnn(-c3cc(F)cc(Cl)c3)c(=O)c2OC2CCCC2)CC1 | AUC(0-t) at 6 h [4]: 490 ng·h/mL |
| 2.95 µM | 0.78 µg/mL (≈ 1.53 µM) | > 50 µg/mL | CCCCCCCc1c(N2CCN(S(=O)(=O)Cc3ccccc3)CC2)cnn(-c2ccccc2)c1=O |  |
| 5.26 µM | 0.63 µg/mL (≈ 1.51 µM) | > 20 µg/mL | CS(=O)(=O)N1CCN(c2cnn(-c3ccccc3)c(=O)c2OC2CCCC2)CC1 |  |
| 2.15 µM | 0.1 µg/mL (≈ 0.215 µM) | 6.3 µg/mL (≈ 13.6 µM) | CC(C)S(=O)(=O)N1CCN(c2cnn(-c3cccc(F)c3)c(=O)c2OC2CCCC2)CC1 | minimal effective concentration [5]: 1.6 µg/mL; AUC(0-t) at 6 h [4]: 670 ng·h/mL |
| 0.504 µM | 0.2 µg/mL (≈ 0.388 µM) | 3.1 µg/mL (≈ 6.01 µM) | CC(C)S(=O)(=O)N1CCN(c2cnn(-c3cc(Cl)cc(Cl)c3)c(=O)c2OC2CCCC2)CC1 |  |
| 1.95 µM | 2.5 µg/mL (≈ 5.4 µM) | > 20 µg/mL | CC(C)S(=O)(=O)N1CCN(c2cnn(-c3cccc(O)c3)c(=O)c2OC2CCCC2)CC1 |  |
| 1.81 µM | 0.1 µg/mL (≈ 0.201 µM) | 3.1 µg/mL (≈ 6.22 µM) | CCOCCOc1c(N2CCN(S(=O)(=O)Cc3ccccc3)CC2)cnn(-c2ccccc2)c1=O |  |
| > 20.8 µM | 0.15 µg/mL (≈ 0.312 µM) |  | O=c1c(OC2CCCC2)c(N2CCN(S(=O)(=O)c3ccccc3)CC2)cnn1-c1ccccc1 | MIC50 [3]: 0.78 µg/mL (≈ 1.62 µM) |
| > 19.2 µM | > 50 µg/mL | > 50 µg/mL | O=c1c(OC2CCCCC2)c(N2CC3CC2CN3S(=O)(=O)Cc2ccccc2)cnn1-c1ccccc1 (stereo not drawn) |  |
| 8.23 µM | 0.39 µg/mL (≈ 0.746 µM) |  | C[C@H]1CN(c2cnn(-c3ccccc3)c(=O)c2OC2CCCCC2)CCN1S(=O)(=O)Cc1ccccc1 | MIC50 [3]: 2 µg/mL (≈ 3.83 µM) |
| 2.03 µM | 0.78 µg/mL (≈ 1.44 µM) |  | CCCCCCCSc1c(N2CCN(S(=O)(=O)Cc3ccccc3)CC2)cnn(-c2ccccc2)c1=O | MIC50 [3]: 3.1 µg/mL (≈ 5.73 µM) |
| 1.28 µM | 0.4 µg/mL (≈ 0.829 µM) | 6.3 µg/mL (≈ 13.1 µM) | CC(C)S(=O)(=O)N1CCN(c2cnn(-c3cc(F)cc(F)c3)c(=O)c2OC2CCCC2)CC1 |  |
